Laboratory results reported in patent US9975852B2, “Quinoline sulfonyl derivatives and uses thereof” (Health Sciences North Research Institute, priority 2013, dated 2018).
Read-outs that look alike come from different tables or passages of the source.

How the values were obtained:
MDA-MB468 = test: SRB antiproliferative assay, MDA-MB468; format: cell-based, human; conditions: Homo sapiens, MDA-MB-468, 48 h
Method: (§1) Antiproliferative effects were determined by a sulforhodamine B (SRB) based protocol. For a typical screening experiment, 5,000-10,000 cells were inoculated into 100 μl medium per well of a 96-well microtiter plate as described previously. […] Some of the sample wells were fixed with 25 μl of 50% trichloroacetic acid (TCA) as a control of the cell population for each cell line at the time of drug addition (Tz). An aliquot of the frozen stock was thawed and diluted to the desired final maximum test-concentration with complete medium. Two to ten-fold serial dilutions were made to provide a total of seven drug concentrations (and a control [C]). Following addition of drugs, the culture plate was incubated for additional 48 h. Cells were fixed in situ by slowly adding 25 μl of ice-cold 50% (w/v) TCA (final concentration, 10% TCA), and were then incubated for 60 min at 4° C. The supernatant was discarded, and the plate was washed five times with tap water, followed by air-dry. 50 μl of SRB solution at 0.4% (w/v) in 1% acetic acid was added to each well, and the plate was incubated for >30 min at room temperature. Unbound SRB was removed by five washes with tap water, followed by air-drying. […] The relative growth rate (%) was calculated for each of the compound concentrations according to the following formula: (Ti−Tz)/(C−Tz)×100 In the formula, time zero (Tz), control growth (C), and OD for different concentration of tested compounds (Ti). The GI50 for each compound was obtained from a non-linear Sigmoidal dose-response (variable slope) curve which is fitted by GraphPad Prism™ v.4.03 software. Values were calculated for each of these parameters if the level of activity was reached. However, if the effect was not reached or was exceeded, the value for that parameter was expressed as greater or less than the maximum or minimum concentration tested. Flow Cytometry

184B5 = test: SRB antiproliferative assay, 184B5 non-cancer breast cells; format: cell-based, human; conditions: Homo sapiens, read-out: GI50 184B5
Method: as §1

MCF7 = test: SRB antiproliferative assay, MCF7; format: cell-based, human; conditions: Homo sapiens, MCF7; SRB, 48 h; read-out: GI50 MCF7
Method: as §1

MDA-MB231 = test: SRB antiproliferative assay, MDA-MB231; format: cell-based, human; conditions: Homo sapiens, MDA-MB-231, 48 h
Method: as §1

MCF10A = test: SRB antiproliferative assay, MCF10A non-cancer breast cells; format: cell-based, human; conditions: Homo sapiens, MCF-10A, 48 h
Method: as §1

SMILES	GI50 (MDA-MB468) [µM]	melting point [°C]	GI50 (184B5; 184B5, SRB, 48 h) [µM]	GI50 (MCF7) [µM]	GI50 (MDA-MB231) [µM]	GI50 (MCF10A) [µM]	GI50 (184B5; 184B5, 48 h) [µM]
Cc1ccc(S(=O)(=O)N2CCN(c3ccnc4cc(C(F)(F)F)ccc34)CC2)cc1 [Compound 8, 4-[4-(Toluene-4-sulfonyl)-piperazin-1-yl]-7-trifluoromethyl-quinoline]	36.5 ± 0.75	126 to 128	13 ± 0.14	20.8 ± 0.23	42.7 ± 0.83	–	–
Cc1ccc(S(=O)(=O)N2CCN(c3ccnc4cc(Cl)ccc34)CC2)cc1 [VR-22 (38), 7-Chloro-4-(4-tosylpiperazin-1-yl)quinoline]	5.77 ± 0.41	–	9.56 ± 0.53	5.25 ± 0.45	6.16 ± 0.51	12.6 ± 0.66	–
O=[N+]([O-])c1ccc(S(=O)(=O)NCCCNc2ccnc3cc(Cl)ccc23)c([N+](=O)[O-])c1 [Compound 17, N-[3-(7-Chloro-quinolin-4-ylamino)-propyl]-2,4-dinitro-benzenesulfonamide]	7.35 ± 0.23	238 to 240	–	6.16 ± 0.32	8.85 ± 0.71	–	9.09 ± 0.56
O=S(=O)(NCCCNc1ccnc2cc(Cl)ccc12)c1ccc(-c2ccccc2)cc1 [Compound 20, Biphenyl-4-sulfonic acid [3-(7-chloro-quinolin-4-ylamino)-propyl]-amide]	4.46 ± 0.37	116 to 118	2.41 ± 0.09	2.47 ± 0.23	4.63 ± 0.42	–	–
O=S(=O)(c1ccc(Cl)cc1)N1CCN(c2ccnc3cc(Cl)ccc23)CC1 [VR-24 (39), 7-Chloro-4-(4-(4-chlorophenylsulfonyl)piperazin-1-yl)quinoline]	8.34 ± 0.73	–	6.36 ± 0.34	4.31 ± 0.32	11.8 ± 0.91	9.7 ± 0.81	–
CN(C)c1cccc2c(S(=O)(=O)NCCCNc3ccnc4cc(C(F)(F)F)ccc34)cccc12 [Compound 28, 5-Dimethylamino-naphthalene-1-sulfonic acid [3-(7-trifluoromethyl-quinolin-4-ylamino)-propyl]-amide]	9.71 ± 0.33	199 to 201	3.73 ± 0.21	7.73 ± 0.61	14.2 ± 0.98	–	–
O=[N+]([O-])c1cccc(S(=O)(=O)N2CCN(c3ccnc4cc(Cl)ccc34)CC2)c1 [VR-25 (40), 7-Chloro-4-(4-(3-nitrophenylsulfonyl)piperazin-1-yl)quinoline]	9.21 ± 0.65	–	15.8 ± 0.88	8.62 ± 0.38	20.4 ± 1.15	31.1 ± 1.01	–
